Reference: ChEMBL document CHEMBL4507257, “Data for DCP probe ABT-100” (2021)

Tests used:
[1] = tested on: Epidermal growth factor receptor (Homo sapiens), P00533 [T790M]; conditions: Compound concentration 1000.0 nM
[2] = target: 3-phosphoinositide-dependent protein kinase 1 (Homo sapiens) (UniProt O15530); conditions: Compound concentration 1000.0 nM
[3] = target: Serine/threonine-protein kinase Chk1 (Homo sapiens) (UniProt O14757); conditions: Compound concentration 1000.0 nM
[4] = target: Serine/threonine-protein kinase 3 (Homo sapiens) (UniProt Q13188); conditions: Compound concentration 1000.0 nM
[5] = target: Serine/threonine-protein kinase 33 (Homo sapiens) (UniProt Q9BYT3); conditions: Compound concentration 1000.0 nM
[6] = target: Cyclin-dependent kinase-like 1 (Homo sapiens) (UniProt Q00532); conditions: Compound concentration 1000.0 nM
[7] = target: T1, Muscarinic acetylcholine receptor M1 (Homo sapiens) (UniProt P11229); conditions: Compound concentration 10.0 uM
T1 sequence (whole entry): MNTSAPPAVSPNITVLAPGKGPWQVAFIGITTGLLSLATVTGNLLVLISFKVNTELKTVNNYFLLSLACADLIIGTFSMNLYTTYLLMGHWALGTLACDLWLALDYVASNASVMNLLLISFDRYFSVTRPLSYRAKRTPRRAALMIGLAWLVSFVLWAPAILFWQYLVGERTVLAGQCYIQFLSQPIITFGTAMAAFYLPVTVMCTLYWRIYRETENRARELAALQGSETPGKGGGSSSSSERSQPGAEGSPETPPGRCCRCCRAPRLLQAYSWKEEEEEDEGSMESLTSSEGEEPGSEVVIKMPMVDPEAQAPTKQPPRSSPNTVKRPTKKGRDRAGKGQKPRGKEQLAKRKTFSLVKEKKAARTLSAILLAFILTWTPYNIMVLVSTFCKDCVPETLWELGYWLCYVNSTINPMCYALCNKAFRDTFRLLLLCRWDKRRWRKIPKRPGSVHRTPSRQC

[8] = target: Cyclin-dependent kinase 11A (Homo sapiens) (UniProt Q9UQ88); conditions: Compound concentration 1000.0 nM
[9] = target: Serine/threonine-protein kinase PAK 6 (Homo sapiens) (UniProt Q9NQU5); conditions: Compound concentration 1000.0 nM
[10] = target: Serine/threonine-protein kinase N1 (Homo sapiens) (UniProt Q16512); conditions: Compound concentration 1000.0 nM
[11] = target: Tyrosine-protein kinase Blk (Homo sapiens) (UniProt P51451); conditions: Compound concentration 1000.0 nM
[12] = target: Ribosomal protein S6 kinase alpha-2 (Homo sapiens) (UniProt Q15349); conditions: Compound concentration 1000.0 nM
[13] = target: Serine/threonine-protein kinase SBK1 (Homo sapiens) (UniProt Q52WX2); conditions: Compound concentration 1000.0 nM
[14] = target: Serine/threonine-protein kinase BRSK1 (Homo sapiens) (UniProt Q8TDC3); conditions: Compound concentration 1000.0 nM
[15] = target: Microtubule-associated serine/threonine-protein kinase 1 (Homo sapiens) (UniProt Q9Y2H9); conditions: Compound concentration 1000.0 nM
[16] = target: Ribosomal protein S6 kinase alpha-3 (Homo sapiens) (UniProt P51812); conditions: Compound concentration 1000.0 nM
[17] = target: Serine/threonine-protein kinase BRSK2 (Homo sapiens) (UniProt Q8IWQ3); conditions: Compound concentration 1000.0 nM
[18] = target: Serine/threonine-protein kinase pim-3 (Homo sapiens) (UniProt Q86V86); conditions: Compound concentration 1000.0 nM
[19] = target: Leucine-rich repeat serine/threonine-protein kinase 2 (Homo sapiens) (UniProt Q5S007); conditions: Compound concentration 1000.0 nM
[20] = target: Phosphatidylinositol 5-phosphate 4-kinase type-2 gamma (Homo sapiens) (UniProt Q8TBX8); conditions: Compound concentration 1000.0 nM
[21] = target: Homeodomain-interacting protein kinase 2 (Homo sapiens, UniProt Q9H2X6); conditions: Compound concentration 1000.0 nM
[22] = target: Mitogen-activated protein kinase kinase kinase 5 (Homo sapiens) (UniProt Q99683); conditions: Compound concentration 1000.0 nM
[23] = target: Cyclin-dependent kinase-like 2 (Homo sapiens) (UniProt Q92772); conditions: Compound concentration 1000.0 nM
[24] = tested on: ALK tyrosine kinase receptor (Homo sapiens), Q9UM73 [L1196M]; conditions: Compound concentration 1000.0 nM
[25] = target: Focal adhesion kinase 1 (Homo sapiens) (UniProt Q05397); conditions: Compound concentration 1000.0 nM
[26] = target: Insulin receptor (Homo sapiens) (UniProt P06213); conditions: Compound concentration 1000.0 nM
[27] = target: Serine/threonine-protein kinase D2 (Homo sapiens) (UniProt Q9BZL6); conditions: Compound concentration 1000.0 nM
[28] = tested on: ALK tyrosine kinase receptor (Homo sapiens), Q9UM73 [C1156Y]; conditions: Compound concentration 1000.0 nM
[29] = target: Mitogen-activated protein kinase 15 (Homo sapiens) (UniProt Q8TD08); conditions: Compound concentration 1000.0 nM
[30] = target: Tyrosine-protein kinase BTK (Homo sapiens) (UniProt Q06187); conditions: Compound concentration 1000.0 nM
[31] = target: Ephrin type-B receptor 1 (Homo sapiens) (UniProt P54762); conditions: Compound concentration 1000.0 nM
[32] = target: Tyrosine-protein kinase Fer (Homo sapiens) (UniProt P16591); conditions: Compound concentration 1000.0 nM
[33] = target: Mitogen-activated protein kinase kinase kinase kinase 4 (Homo sapiens) (UniProt O95819); conditions: Compound concentration 1000.0 nM
[34] = tested on: Epidermal growth factor receptor (Homo sapiens), P00533 [UNDEFINED MUTATION]; conditions: Compound concentration 1000.0 nM
Histamine H1 receptor = Histamine H1 receptor (Homo sapiens, UniProt P35367); conditions: Compound concentration 10.0 uM
[35] = tested on: eIF-2-alpha kinase GCN2 (Homo sapiens), Q9P2K8 [S808G]; conditions: Compound concentration 1000.0 nM
[36] = target: NT-3 growth factor receptor (Homo sapiens) (UniProt Q16288); conditions: Compound concentration 1000.0 nM
[37] = target: Phosphorylase b kinase regulatory subunit alpha, liver isoform (Homo sapiens) (UniProt P46019); conditions: Compound concentration 1000.0 nM
[38] = tested on: Mast/stem cell growth factor receptor Kit (Homo sapiens), P10721 [V559D,V654A]; conditions: Compound concentration 1000.0 nM
Chain of Mast/stem cell growth factor receptor Kit (Homo sapiens), P10721 [V559D,V654A] (P10721 whole entry V559D/V654A): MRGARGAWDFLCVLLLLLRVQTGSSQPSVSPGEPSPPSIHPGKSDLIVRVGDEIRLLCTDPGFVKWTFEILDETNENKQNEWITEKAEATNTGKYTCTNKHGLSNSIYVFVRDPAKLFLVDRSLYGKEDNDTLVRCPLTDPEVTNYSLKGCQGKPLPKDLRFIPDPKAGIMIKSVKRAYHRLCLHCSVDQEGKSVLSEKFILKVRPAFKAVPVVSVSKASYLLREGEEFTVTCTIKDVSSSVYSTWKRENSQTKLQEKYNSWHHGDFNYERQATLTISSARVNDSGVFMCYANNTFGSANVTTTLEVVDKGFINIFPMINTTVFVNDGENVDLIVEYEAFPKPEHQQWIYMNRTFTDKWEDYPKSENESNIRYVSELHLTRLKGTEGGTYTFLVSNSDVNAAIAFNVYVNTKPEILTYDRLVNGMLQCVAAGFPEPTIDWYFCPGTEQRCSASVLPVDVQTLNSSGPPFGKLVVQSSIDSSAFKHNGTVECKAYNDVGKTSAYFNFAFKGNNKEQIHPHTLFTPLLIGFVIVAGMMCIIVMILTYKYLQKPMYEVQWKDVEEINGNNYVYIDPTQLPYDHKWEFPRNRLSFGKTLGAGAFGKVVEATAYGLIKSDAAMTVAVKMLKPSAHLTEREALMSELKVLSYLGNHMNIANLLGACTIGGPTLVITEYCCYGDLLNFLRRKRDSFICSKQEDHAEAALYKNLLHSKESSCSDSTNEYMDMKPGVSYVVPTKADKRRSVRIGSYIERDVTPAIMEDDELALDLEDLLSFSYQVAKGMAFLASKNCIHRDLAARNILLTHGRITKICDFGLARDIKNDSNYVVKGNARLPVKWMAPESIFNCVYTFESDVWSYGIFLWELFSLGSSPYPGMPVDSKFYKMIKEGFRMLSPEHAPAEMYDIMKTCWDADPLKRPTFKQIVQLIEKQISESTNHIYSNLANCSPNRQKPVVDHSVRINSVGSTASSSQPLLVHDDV

Chain of Mitogen-activated protein kinase kinase kinase kinase 4 (Homo sapiens) (O95819 2-1239 limits assumed): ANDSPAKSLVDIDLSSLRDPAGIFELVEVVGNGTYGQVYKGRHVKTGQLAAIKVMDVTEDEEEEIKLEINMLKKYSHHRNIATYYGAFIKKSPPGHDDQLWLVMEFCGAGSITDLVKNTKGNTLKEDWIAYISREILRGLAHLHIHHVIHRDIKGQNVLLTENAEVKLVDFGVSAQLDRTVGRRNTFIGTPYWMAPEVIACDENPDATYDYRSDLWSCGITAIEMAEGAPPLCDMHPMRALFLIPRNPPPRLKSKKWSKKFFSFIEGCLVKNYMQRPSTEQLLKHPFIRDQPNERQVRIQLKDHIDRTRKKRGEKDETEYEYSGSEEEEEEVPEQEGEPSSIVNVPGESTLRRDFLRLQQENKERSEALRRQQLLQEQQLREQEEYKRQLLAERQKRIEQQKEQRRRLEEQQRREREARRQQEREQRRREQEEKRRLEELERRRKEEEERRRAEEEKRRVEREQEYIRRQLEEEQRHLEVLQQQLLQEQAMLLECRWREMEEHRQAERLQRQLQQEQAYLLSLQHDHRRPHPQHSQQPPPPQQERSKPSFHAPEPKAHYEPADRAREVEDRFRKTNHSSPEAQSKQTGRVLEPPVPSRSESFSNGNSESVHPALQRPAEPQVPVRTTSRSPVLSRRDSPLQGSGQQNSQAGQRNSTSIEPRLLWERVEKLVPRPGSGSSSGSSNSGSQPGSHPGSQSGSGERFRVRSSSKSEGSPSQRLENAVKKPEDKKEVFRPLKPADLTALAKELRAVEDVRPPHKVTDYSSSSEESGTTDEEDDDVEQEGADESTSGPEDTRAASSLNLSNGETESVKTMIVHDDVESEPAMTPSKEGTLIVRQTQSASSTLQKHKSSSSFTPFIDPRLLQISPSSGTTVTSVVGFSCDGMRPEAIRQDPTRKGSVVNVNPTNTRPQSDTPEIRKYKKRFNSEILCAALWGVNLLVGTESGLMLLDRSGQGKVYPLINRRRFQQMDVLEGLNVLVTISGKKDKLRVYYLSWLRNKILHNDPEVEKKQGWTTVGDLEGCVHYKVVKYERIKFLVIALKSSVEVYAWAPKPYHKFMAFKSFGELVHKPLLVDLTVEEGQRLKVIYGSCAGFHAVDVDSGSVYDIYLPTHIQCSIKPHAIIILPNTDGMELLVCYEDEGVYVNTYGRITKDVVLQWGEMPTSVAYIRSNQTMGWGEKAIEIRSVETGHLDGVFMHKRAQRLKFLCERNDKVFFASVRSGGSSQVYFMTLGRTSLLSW
Chain of Tyrosine-protein kinase BTK (Homo sapiens) (Q06187 whole entry): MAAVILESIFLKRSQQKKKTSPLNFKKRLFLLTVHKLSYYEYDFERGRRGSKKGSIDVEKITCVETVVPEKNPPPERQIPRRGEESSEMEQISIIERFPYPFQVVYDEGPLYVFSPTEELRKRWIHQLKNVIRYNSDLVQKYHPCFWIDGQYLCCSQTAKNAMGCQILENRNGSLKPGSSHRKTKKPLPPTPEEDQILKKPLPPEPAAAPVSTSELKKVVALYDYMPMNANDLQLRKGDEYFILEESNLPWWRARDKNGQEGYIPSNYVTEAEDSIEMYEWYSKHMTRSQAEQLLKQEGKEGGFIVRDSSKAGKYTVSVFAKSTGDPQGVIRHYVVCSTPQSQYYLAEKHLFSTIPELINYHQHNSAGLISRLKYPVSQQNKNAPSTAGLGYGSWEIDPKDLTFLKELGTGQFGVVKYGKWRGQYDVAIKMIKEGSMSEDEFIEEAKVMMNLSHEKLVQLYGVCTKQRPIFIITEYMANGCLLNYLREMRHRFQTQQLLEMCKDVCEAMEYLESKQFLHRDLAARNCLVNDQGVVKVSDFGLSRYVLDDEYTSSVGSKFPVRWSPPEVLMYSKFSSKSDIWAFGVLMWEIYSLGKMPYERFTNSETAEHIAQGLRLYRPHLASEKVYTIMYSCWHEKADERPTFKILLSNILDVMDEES
Chain of Serine/threonine-protein kinase D2 (Homo sapiens) (Q9BZL6 whole entry): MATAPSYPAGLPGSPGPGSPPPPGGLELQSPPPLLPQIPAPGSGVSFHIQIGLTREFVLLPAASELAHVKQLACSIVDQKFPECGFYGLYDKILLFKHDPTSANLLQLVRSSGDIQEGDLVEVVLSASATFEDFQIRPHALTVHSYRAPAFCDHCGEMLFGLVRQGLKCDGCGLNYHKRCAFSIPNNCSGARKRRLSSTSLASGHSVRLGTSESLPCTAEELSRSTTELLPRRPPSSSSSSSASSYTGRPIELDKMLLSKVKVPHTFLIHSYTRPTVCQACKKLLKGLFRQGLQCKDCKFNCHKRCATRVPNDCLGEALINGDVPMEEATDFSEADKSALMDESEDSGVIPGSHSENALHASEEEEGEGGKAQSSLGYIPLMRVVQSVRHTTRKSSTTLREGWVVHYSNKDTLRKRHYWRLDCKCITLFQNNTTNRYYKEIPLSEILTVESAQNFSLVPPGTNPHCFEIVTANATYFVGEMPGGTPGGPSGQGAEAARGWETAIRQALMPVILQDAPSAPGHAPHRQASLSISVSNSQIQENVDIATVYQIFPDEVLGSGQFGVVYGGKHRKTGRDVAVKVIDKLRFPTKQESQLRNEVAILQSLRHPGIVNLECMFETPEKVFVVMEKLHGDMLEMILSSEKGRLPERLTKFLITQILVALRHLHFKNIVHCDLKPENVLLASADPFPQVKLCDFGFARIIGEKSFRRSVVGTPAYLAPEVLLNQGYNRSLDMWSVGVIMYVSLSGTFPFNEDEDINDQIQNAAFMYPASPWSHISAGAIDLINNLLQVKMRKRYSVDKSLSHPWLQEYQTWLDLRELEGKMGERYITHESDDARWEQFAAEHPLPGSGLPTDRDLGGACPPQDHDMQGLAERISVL
Chain of Serine/threonine-protein kinase PAK 6 (Homo sapiens) (Q9NQU5 whole entry, looked up): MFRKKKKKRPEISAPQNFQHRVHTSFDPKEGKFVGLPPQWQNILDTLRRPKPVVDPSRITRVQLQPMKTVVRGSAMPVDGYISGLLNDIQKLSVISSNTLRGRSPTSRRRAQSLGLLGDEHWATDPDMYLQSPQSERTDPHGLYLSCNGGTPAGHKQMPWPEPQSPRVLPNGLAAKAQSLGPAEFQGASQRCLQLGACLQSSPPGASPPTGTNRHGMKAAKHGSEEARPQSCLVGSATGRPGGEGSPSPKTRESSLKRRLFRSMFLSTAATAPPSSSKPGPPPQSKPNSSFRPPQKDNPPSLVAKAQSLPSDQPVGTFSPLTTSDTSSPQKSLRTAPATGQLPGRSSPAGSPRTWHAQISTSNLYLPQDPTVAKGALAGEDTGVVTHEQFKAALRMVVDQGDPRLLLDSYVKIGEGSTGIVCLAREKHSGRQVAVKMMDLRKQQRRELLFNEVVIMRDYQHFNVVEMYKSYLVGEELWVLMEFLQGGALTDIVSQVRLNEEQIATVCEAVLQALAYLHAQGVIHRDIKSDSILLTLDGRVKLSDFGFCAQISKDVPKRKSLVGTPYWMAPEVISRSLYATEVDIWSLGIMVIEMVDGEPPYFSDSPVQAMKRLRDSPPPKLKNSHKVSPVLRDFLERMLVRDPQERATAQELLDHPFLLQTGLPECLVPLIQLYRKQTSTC
Chain of Cyclin-dependent kinase-like 1 (Homo sapiens) (Q00532 whole entry): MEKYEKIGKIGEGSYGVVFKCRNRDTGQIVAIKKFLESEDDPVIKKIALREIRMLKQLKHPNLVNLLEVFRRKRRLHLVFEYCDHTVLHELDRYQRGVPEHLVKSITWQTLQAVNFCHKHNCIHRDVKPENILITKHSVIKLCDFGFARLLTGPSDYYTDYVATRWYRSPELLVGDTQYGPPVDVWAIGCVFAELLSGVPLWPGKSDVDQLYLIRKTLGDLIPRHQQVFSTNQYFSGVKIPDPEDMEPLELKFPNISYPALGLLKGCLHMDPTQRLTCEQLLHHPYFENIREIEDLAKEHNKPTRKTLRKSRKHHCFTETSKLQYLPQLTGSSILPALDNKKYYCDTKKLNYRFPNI

Cn1cncc1[C@@](O)(COc1ccc(C#N)cc1-c1ccc(OC(F)(F)F)cc1)c1ccc(C#N)cc1 [A-108]
inactive: residual activity [1] 68% | residual activity [2] 96% | residual activity [3] 100% | residual activity [4] 95% | residual activity [5] 69% | residual activity [6] 89% | inhibition [7] 25.8% | residual activity [8] 100% | residual activity [9] 100% | residual activity [10] 100% | residual activity [11] 71% | residual activity [12] 100% | residual activity [13] 100% | residual activity [14] 86% | residual activity [15] 100% | residual activity [16] 98% | residual activity [17] 100% | residual activity [18] 100% | residual activity [19] 100% | residual activity [20] 96% | residual activity [21] 100% | residual activity [22] 91% | residual activity [23] 93% | residual activity [24] 100% | residual activity [25] 97% | residual activity [26] 84% | residual activity [27] 100% | residual activity [28] 98% | residual activity [29] 100% | residual activity [30] 82% | residual activity [31] 100% | residual activity [32] 100% | residual activity [33] 100% | residual activity [34] 100% | inhibition (Histamine H1 receptor) 43.5% | residual activity [35] 100% | residual activity [36] 99% | residual activity [37] 92% | residual activity [38] 100%

Cn1cncc1[C@](O)(COc1ccc(C#N)cc1-c1ccc(OC(F)(F)F)cc1)c1ccc(C#N)cc1 [ABT-100]
inactive: residual activity [1] 100% | residual activity [2] 87% | residual activity [3] 97% | residual activity [4] 77% | residual activity [5] 74% | residual activity [6] 82% | inhibition [7] -4.07% | residual activity [8] 100% | residual activity [9] 98% | residual activity [10] 100% | residual activity [11] 90% | residual activity [12] 89% | residual activity [13] 100% | residual activity [14] 73% | residual activity [15] 92% | residual activity [16] 100% | residual activity [18] 89% | residual activity [19] 100% | residual activity [20] 87% | residual activity [21] 100% | residual activity [22] 77% | residual activity [23] 88% | residual activity [24] 100% | residual activity [25] 77% | residual activity [26] 100% | residual activity [27] 84% | residual activity [28] 92% | residual activity [29] 58% | residual activity [30] 92% | residual activity [31] 98% | residual activity [32] 83% | residual activity [33] 100% | residual activity [34] 76% | residual activity [35] 99% | residual activity [36] 80% | residual activity [37] 92% | residual activity [38] 100%
active: residual activity [17] 48% | inhibition (Histamine H1 receptor) 88.8%
